Experimental data reported in PubChem BioAssay (NCI).
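Cultured in 96-well plates, cells were exposed to test compound for 48 hours across five concentrations. GI50 is the concentration that inhibits growth by half. At the TGI there is no net growth.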

Experiments:
Assay in all cases: inhibition of tumour cell growth, NCI panel, 48 h
HCC-2998 colon = system: HCC-2998 colon
NCI-H460 lung = system: NCI-H460 lung
OVCAR-5 ovarian = system: OVCAR-5 ovarian
RXF 393 renal = system: RXF 393 renal
SF-539 CNS = system: SF-539 CNS
SK-MEL-28 melanoma = system: SK-MEL-28 melanoma
SN12C renal = system: SN12C renal
SW-620 colon = system: SW-620 colon
DU-145 prostate = system: DU-145 prostate
MDA-MB-231 breast = system: MDA-MB-231 breast

| Compound | GI50 (HCC-2998 colon) [µM] | TGI (HCC-2998 colon) [µM] | GI50 (NCI-H460 lung) [µM] | TGI (NCI-H460 lung) [µM] | GI50 (OVCAR-5 ovarian) [µM] | TGI (OVCAR-5 ovarian) [µM] | GI50 (RXF 393 renal) [µM] | TGI (RXF 393 renal) [µM] | GI50 (SF-539 CNS) [µM] | TGI (SF-539 CNS) [µM] | GI50 (SK-MEL-28 melanoma) [µM] | TGI (SK-MEL-28 melanoma) [µM] | GI50 (SN12C renal) [µM] | TGI (SN12C renal) [µM] | TGI (SW-620 colon) [µM] | GI50 (DU-145 prostate) [µM] | TGI (DU-145 prostate) [µM] | GI50 (MDA-MB-231 breast) [µM] | TGI (MDA-MB-231 breast) [µM] | GI50 (SW-620 colon) [µM] |
| --- | --- | --- | --- | --- | --- | --- | --- | --- | --- | --- | --- | --- | --- | --- | --- | --- | --- | --- | --- | --- |
| CC1=CC[C@@H]2C(=O)C=CC=C[C@H]12.[C-]#[O+].[C-]#[O+].[C-]#[O+].[Fe] | > 100 | > 100 | > 100 | > 100 | > 100 | > 100 | > 100 | > 100 | > 100 | > 100 | > 100 | > 100 | > 100 | > 100 | – | – | – | – | – | – |
| CC(C)=CC1(C)/C(=N\O)C(C)(CC(C)C)C(=O)N1O (stereo not given) | – | > 100 | – | > 100 | – | > 100 | – | > 100 | – | > 100 | – | > 100 | – | > 100 | > 100 | – | – | – | – | – |
| Cc1ccc(Nn2c(SCC(=O)Nc3nc(-c4ccccc4)cs3)nc(C)c2C)cc1 | – | – | 3.88 | 16.5 | 17.2 | > 100 | – | – | 4.68 | 35.2 | – | – | 3.2 | 14.2 | > 100 | 9.75 | 64.6 | 3.34 | > 100 | 8.3 |
| CCCCCC/C=C\CCCCCCCCCc1cccc(OC)c1O | – | – | – | – | – | > 100 | – | > 100 | – | > 100 | – | > 100 | – | > 100 | > 100 | – | > 100 | – | > 100 | – |
| CC(C)CCCC(C)[C@H]1CCC2C3CC=C4C[C@@H](OC(=O)CC(CC(=O)[O-])C(=O)[O-])CC[C@]4(C)C3CC[C@@]21C.N.N.[Pt+4] (stereo not given in full) | – | – | > 100 | > 100 | – | – | 47.1 | > 100 | > 100 | > 100 | > 100 | > 100 | > 100 | > 100 | > 100 | – | – | – | – | > 100 |
| Cc1c(-c2cc(-c3ccccc3)n[nH]c2=O)c2ccccc2n1C | – | > 100 | – | > 100 | – | > 100 | – | > 100 | – | > 100 | – | > 100 | – | > 100 | > 100 | – | – | – | – | – |
| O=C1c2ccccc2-c2c1c1ccc([N+](=O)[O-])cc1c(=O)n2CCN1CCOCC1 | > 100 | > 100 | 78.4 | > 100 | > 100 | > 100 | – | – | – | – | > 100 | > 100 | 59.3 | > 100 | > 100 | 61 | > 100 | > 100 | > 100 | 40.5 |
| CCOC(=O)C1=C(Nc2cccc3ccccc23)OCC1=O | – | > 100 | – | > 100 | – | > 100 | – | – | – | > 100 | – | > 100 | – | > 100 | > 100 | – | – | – | – | – |
| NC(=S)N/N=C1/C(=O)N(c2ccccc2)C(=O)C1C(=O)Nc1ccccc1 (stereo not given) | – | > 100 | – | > 100 | – | > 100 | – | > 100 | – | > 100 | – | > 100 | – | > 100 | > 100 | – | – | – | – | – |
| COc1ccc(C#CC2=C(Br)C(=O)OC2)cc1 | – | – | 10 | > 50 | 14.7 | 28.8 | 7.06 | 17.4 | 5.15 | 16.8 | 5.54 | 23.3 | 8.83 | 16.9 | 4.54 | 5.44 | 11.4 | 9.48 | 27.6 | 1.23 |
| CC(C)(C)CC(C)(C)c1cc2c(O)c(c1)Cc1cc(C(C)(C)CC(C)(C)C)cc(c1O)Cc1cc(C(C)(C)CC(C)(C)C)cc(c1O)Cc1cc(C(C)(C)CC(C)(C)C)cc(c1O)Cc1cc(C(C)(C)CC(C)(C)C)cc(c1O)Cc1cc(C(C)(C)CC(C)(C)C)cc(c1O)Cc1cc(C(C)(C)CC(C)(C)C)cc(c1O)Cc1cc(C(C)(C)CC(C)(C)C)cc(c1O)C2 | – | > 100 | – | > 100 | – | > 100 | – | > 100 | – | > 100 | – | > 100 | – | > 100 | > 100 | – | – | – | – | – |
| CN(C)C(=S)/N=C(\N)N(C)C | – | > 100 | – | > 100 | – | > 100 | – | > 100 | – | > 100 | – | > 100 | – | > 100 | > 100 | – | – | – | – | – |
| Nc1ncnc2c1N=CN(Oc1ccccc1)N2 | – | – | – | > 100 | – | > 100 | – | > 100 | – | > 100 | – | > 100 | – | 43.7 | > 100 | – | – | – | – | – |
| O=C(/C=C/c1cc(O)ccc1O)c1ccc(Cl)cc1 | – | – | 32.5 | > 100 | 17.4 | 38.7 | > 100 | > 100 | – | – | 60.4 | > 100 | 18.1 | 44.7 | > 100 | – | – | 11.7 | 43.5 | 61.9 |
| O=C(/C=C/c1ccco1)N1CCN(Cc2ccccc2)CC1 | – | > 100 | – | > 100 | – | > 100 | – | – | – | > 100 | – | > 100 | – | > 100 | > 100 | – | – | – | – | – |
| C=CCC(O)c1cc(OC)ccc1OC (stereo not given) | – | > 100 | – | > 100 | – | > 100 | – | > 100 | – | > 100 | – | > 100 | – | > 100 | > 100 | – | – | – | – | – |
| CC/C(=N/O)C(C)C(=O)CCC(=O)Nc1ccc(Cl)cc1 (stereo not given) | – | > 100 | – | > 100 | – | > 100 | – | > 100 | – | > 100 | – | > 100 | – | > 100 | > 100 | – | – | – | – | – |
| C=C(C)C1Cc2cc(C(C)=O)ccc2O1 (stereo not given) | – | > 100 | – | > 100 | – | > 100 | – | – | – | > 100 | – | > 100 | – | > 100 | > 100 | – | > 100 | – | > 100 | – |
| C#CCn1c2c(c3ccccc3c1=O)C(=O)c1ccccc1-2 | – | – | – | – | – | > 100 | – | – | – | 24.2 | – | > 100 | – | 81.6 | > 100 | – | 44.4 | – | 39.1 | – |
| CNC(=O)NCCCCC(NC(=O)OCc1ccccc1)C(=O)OCc1ccccc1 (stereo not given) | – | 36.9 | – | > 100 | – | > 100 | – | 33.9 | – | 38.5 | – | 60.6 | – | 51.1 | > 100 | – | – | – | – | – |
| COc1ccc(/C=C\c2cc(OC)c(OC)c(OC)c2)cc1N/C=C\C(=O)c1c[nH]c2ccccc12 | < 0.01 | > 100 | < 0.01 | 20.3 | < 0.01 | > 100 | – | – | < 0.01 | < 0.01 | 1.59 | > 100 | 0.0224 | > 100 | > 100 | < 0.01 | 0.0142 | < 0.01 | 94.4 | < 0.01 |
